The record followed here is patent US8410155B2, “Arylpropionamide, arylacrylamide, arylpropynamide, or arylmethylurea analogs as factor XIA inhibitors” (Bristol-Myers Squibb Company, priority 2006, dated 2013).

As a reminder, the Ki is a dissociation constant, usually derived from enzyme kinetics or from competition with a known ligand. Low values mean tighter binding, high ones weaker binding.

Where a name gives a salt, the structure may show the parent alone.

T1 sequence (P03951 388-625 limits assumed): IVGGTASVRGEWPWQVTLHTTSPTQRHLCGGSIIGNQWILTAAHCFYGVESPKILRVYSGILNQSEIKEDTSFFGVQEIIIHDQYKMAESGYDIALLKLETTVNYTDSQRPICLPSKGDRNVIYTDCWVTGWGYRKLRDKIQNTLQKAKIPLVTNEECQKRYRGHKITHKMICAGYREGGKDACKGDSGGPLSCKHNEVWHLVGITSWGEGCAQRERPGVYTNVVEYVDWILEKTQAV
T1 sequence (P03951 19-387 partner limits assumed): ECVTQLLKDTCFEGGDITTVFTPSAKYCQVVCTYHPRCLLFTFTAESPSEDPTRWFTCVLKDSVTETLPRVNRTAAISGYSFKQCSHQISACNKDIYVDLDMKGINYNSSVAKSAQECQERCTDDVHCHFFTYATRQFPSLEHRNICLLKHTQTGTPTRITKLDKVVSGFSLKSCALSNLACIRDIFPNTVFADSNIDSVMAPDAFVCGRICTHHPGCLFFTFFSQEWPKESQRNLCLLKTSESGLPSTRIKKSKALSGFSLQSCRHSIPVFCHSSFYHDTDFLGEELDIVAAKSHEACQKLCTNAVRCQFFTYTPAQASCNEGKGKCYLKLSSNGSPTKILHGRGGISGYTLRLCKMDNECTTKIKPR

This experiment has as its target T1, purified human Factor XIa (Homo sapiens, UniProt P03951).
T1 construct: purchased Haematologic Technologies
Kind of experiment: Factor XIa enzyme inhibition assay (chromogenic substrate S-2366). Type of experiment: biochemical. As to conditions: substrate S-2366, 50 mM HEPES pH 7.4. The protocol:
The effectiveness of compounds of the present invention as inhibitors of the coagulation factors XIa, VIIa, IXa, Xa, XIIa, plasma kallikrein or thrombin, can be determined using a relevant purified serine protease, respectively, and an appropriate synthetic substrate. The rate of hydrolysis of the chromogenic or fluorogenic substrate by the relevant serine protease was measured both in the absence and presence of compounds of the present invention. […] A decrease in the rate of absorbance or fluorescence change in the presence of inhibitor is indicative of enzyme inhibition. Such methods are known to one skilled in the art. The results of this assay are expressed as the inhibitory constant, Ki.
Values of Ki were determined by allowing the protease to react with the substrate in the presence of the inhibitor. Reactions were allowed to go for periods of 20-180 minutes (depending on the protease) and the velocities (rate of absorbance or fluorescence change versus time) were measured. The following relationships were used to calculate Ki values: (vo−vs)/vs=I/(Ki(1+S/Km)) for a competitive inhibitor with one binding site; or vs/vo=A+((B−A)/1+((IC50/(I)^n))) and Ki=IC50/(1+S/Km) for a competitive inhibitor
`COC(=O)Nc1ccc(-c2[nH]c(CNC(=O)/C=C/c3cc(Cl)ccc3-n3cnnn3)nc2Cl)cc1` [Example 1, [4-(5-chloro-2-{[(E)-3-(5-chloro-2-tetrazol-1-yl-phenyl)-acryloylamino]-methyl}-1H-imidazol-4-yl)-phenyl]-carbamic acid methyl ester, trifluoroacetic acid salt] yielded a Ki of 0.0273 µM. `COC(=O)Nc1ccc(-c2nc(CNC(=O)CCc3cc(Cl)ccc3-n3cnnn3)[nH]c2Cl)cc1` [Example 2, [4-(5-Chloro-2-{[3-(5-chloro-2-tetrazol-1-yl-phenyl)-propionylamino]-methyl}-1H-imidazol-4-yl)-phenyl]-carbamic acid methyl ester, trifluoroacetic acid salt] yielded a Ki of 0.0168 µM.

The molecule `O=C(/C=C/c1cc(Cl)ccc1-n1cnnn1)NCc1nc(-c2ccc3c(c2)CCC(=O)N3)c(Cl)[nH]1` [Example 3, (E)-N-[5-Chloro-4-(2-oxo-1,2,3,4-tetrahydro-quinolin-6-yl)-1H-imidazol-2-ylmethyl]-3-(5-chloro-2-tetrazol-1-yl-phenyl)-acrylamide, trifluoroacetic acid salt] came in with an inhibitory constant (Ki) of 0.0121 µM. This Ki and that of the molecule before are within 1.5-fold of each other. The figure for `COC(=O)Nc1ccc(-c2cncc(CNC(=O)/C=C/c3cc(Cl)ccc3-n3cnnn3)c2)cc1` [Example 5, [4-(5-{[(E)-3-(5-Chloro-2-tetrazol-1-yl-phenyl)-acryloylamino]-methyl}-pyridin-3-yl)-phenyl]-carbamic acid methyl ester, trifluoroacetic acid salt] is 0.283 µM; for `COC(=O)Nc1ccc(-c2cncc(CNC(=O)CCc3cc(Cl)ccc3-n3cnnn3)c2)cc1` [Example 6, [4-(5-{[3-(5-Chloro-2-tetrazol-1-yl-phenyl)-propionylamino]-methyl}-pyridin-3-yl)-phenyl]-carbamic acid methyl ester, trifluoroacetic acid salt] it is 1.25 µM; for `COC(=O)Nc1ccc(-c2ccnc(CNC(=O)/C=C/c3cc(Cl)ccc3-n3cnnn3)c2)cc1` [Example 7, [4-(2-{[(E)-3-(5-Chloro-2-tetrazol-1-yl-phenyl)-acryloylamino]-methyl}-pyridin-4-yl)-phenyl]-carbamic acid methyl ester, trifluoroacetic acid salt] it is 0.475 µM. The figure for `COC(=O)Nc1ccc(-c2c[nH]c(=O)c(CNC(=O)/C=C/c3cc(Cl)ccc3-n3cnnn3)c2)cc1` [Example 8, [4-(5-{[(E)-3-(5-Chloro-2-tetrazol-1-yl-phenyl)-acryloylamino]-methyl}-6-oxo-1,6-dihydro-pyridin-3-yl)-phenyl]-carbamic acid methyl ester] is 0.277 µM.

Regarding `COC(=O)Nc1ccc(-c2nc(CN(Cc3ccccc3)C(=O)/C=C/c3cc(Cl)ccc3-n3cnnn3)[nH]c2Cl)cc1` [Example 10, {4-[2-({Benzyl-[(E)-3-(5-chloro-2-tetrazol-1-yl-phenyl)-acryloyl]-amino}-methyl)-5-chloro-1H-imidazol-4-yl]-phenyl}-carbamic acid methyl ester, trifluoroacetic acid salt], the affinity corresponds to a Ki of 1.51 µM.
